Reference: PMC4674695, “Antagonism of Nav channels and α1-adrenergic receptors contributes to vascular smooth muscle effects of ranolazine” (Scientific Reports, 2015)

Test system: T1, tetrodotoxin-sensitive voltage-gated Nav channels
T1 construct: gene Scn1a
Test: whole-cell patch clamp, voltage ramp
Type: cell-based, Rattus norvegicus
Conditions: INa at maximal amplitude; veratridine 100 μM present, 2 mM NiCl2, 22–24 °C, pH 7.4; block voltage-dependent

COc1ccccc1OCC(O)CN1CCN(CC(=O)Nc2c(C)cccc2C)CC1 (stereo not shown) [ranolazine]
% inhibition at 20 μM: 40%
